Experimental data reported in patent US7452908B2, “Amide derivatives” (Banyu Pharmaceutical Co., Ltd., priority 1999, dated 2008).

How the values were obtained:
[1] = target: T1, human m2 muscarinic acetylcholine receptor expressed in CHO cells (Homo sapiens, UniProt P08172); experiment: Inhibition of [3H]-N-methylscopolamine binding to muscarinic m2 receptor; conditions: 0.2 nM [3H]-N-methylscopolamine
T1 construct: purchased Receptor Biology, Inc; host or cells: CHO cells
T1 sequence (P08172 1-466): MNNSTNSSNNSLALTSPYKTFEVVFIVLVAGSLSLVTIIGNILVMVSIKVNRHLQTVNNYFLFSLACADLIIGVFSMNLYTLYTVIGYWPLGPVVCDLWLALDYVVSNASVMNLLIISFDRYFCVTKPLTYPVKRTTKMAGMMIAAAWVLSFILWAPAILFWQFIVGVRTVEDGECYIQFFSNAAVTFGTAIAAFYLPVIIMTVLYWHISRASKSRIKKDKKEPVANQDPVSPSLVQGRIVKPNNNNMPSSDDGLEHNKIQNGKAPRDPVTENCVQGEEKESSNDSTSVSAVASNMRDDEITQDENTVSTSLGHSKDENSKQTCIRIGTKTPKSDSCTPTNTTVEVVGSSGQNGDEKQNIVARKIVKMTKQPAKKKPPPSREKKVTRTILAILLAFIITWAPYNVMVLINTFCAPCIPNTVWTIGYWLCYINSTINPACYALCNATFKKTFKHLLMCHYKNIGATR
Method: (§1) These tests were performed according to a modification of the method of Hargreaves, et al. (Br. J. Pharmacol. 107: 494-501, 1992). Namely, muscarinic acetylcholine receptors of human m1, m2, m3, m4 and m5 expressed in CHO cells (Receptor Biology, Inc.) were incubated with 0.2 nM [^3H]-N-methylscopolamine (82Ci/mmol, New England Nuclear, Inc.) and a test compound to be tested in 0.5 ml of 50 mM Tris-HCl, 10 mM MgCl2, 1 mM EDTA solution (pH 7.4) for 120 minutes at room temperature (about 20-25° C.), followed by suction filtration over a glass filter (UniFilter plate-GF/C; Packard). Then the filter was washed four times with 1 ml of ice-cold Tris-HCl buffer and dried at 50° C. for an hour. After adding a scintillator (Microscinti 0; Packard), the radioactivity of [^3H]-N-methylscopolamine binding to the filter was counted with a microplate scintillation counter (TopCount™; Packard). Non-specific receptor binding of [^3H]-N-methylscopolamine was measured by adding 1 μM N-methylscopolamine.

[2] = target: T2, human m4 muscarinic acetylcholine receptor expressed in CHO cells (Homo sapiens, UniProt P08173); experiment: Inhibition of [3H]-N-methylscopolamine binding to muscarinic m4 receptor; conditions: 0.2 nM [3H]-N-methylscopolamine
T2 construct: purchased Receptor Biology, Inc; host or cells: CHO cells
T2 sequence (P08173 1-479): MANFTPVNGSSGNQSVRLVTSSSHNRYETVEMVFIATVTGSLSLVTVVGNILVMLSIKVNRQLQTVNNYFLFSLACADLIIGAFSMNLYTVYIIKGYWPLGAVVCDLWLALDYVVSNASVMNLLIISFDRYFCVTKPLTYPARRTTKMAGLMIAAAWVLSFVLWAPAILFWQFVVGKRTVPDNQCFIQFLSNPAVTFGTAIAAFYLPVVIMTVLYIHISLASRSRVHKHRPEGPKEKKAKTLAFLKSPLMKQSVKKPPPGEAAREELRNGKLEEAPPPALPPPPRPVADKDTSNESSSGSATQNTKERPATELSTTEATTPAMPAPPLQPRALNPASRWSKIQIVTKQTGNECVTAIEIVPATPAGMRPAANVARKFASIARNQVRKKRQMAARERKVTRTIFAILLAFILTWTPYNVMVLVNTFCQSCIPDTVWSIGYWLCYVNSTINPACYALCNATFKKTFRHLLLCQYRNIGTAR
Method: as §1

[3] = target: T3, airway M3 receptor in isolated rat trachea (Rattus norvegicus, UniProt P08483); experiment: Antagonism to the airway M3 receptor in isolated rat trachea (carbachol-induced contraction); type: cell-based; conditions: for Kb: isolated rat trachea, shift of carbachol dose-response curve; for Selectivity M2/M3: ratio of KB right atrium M2 to KB trachea M3
T3 construct: from tissue; host or cells: trachea of male SD rats
Method: The test was performed according to a conventional method. Male SD strain rats (weighing 300-500 g) were killed by exsanguination, and from each of them the trachea was isolated. Annular segments (2 mm wide) were cut out from the trachea and cut transversely at the anterior cartilage part to make open ring preparation. Each preparation was suspended in a Magnus tube filled with 5 ml of Krebs-Henseleit solution (gassed with 95% O2-5% CO2 and kept at 32° C.) with an initial tension of 1.0 g and a resting tension of 0.6 g. The tension of the preparation was recorded isometrically. After being equilibrated for an hour, the preparation was made to contract twice by treatment with 10^−4 M carbachol, and the second contraction induced by carbachol was used as the reference contraction. After washing the preparation with fresh solution to restore it to the base line, a test compound was administered thereto (or no treatment was given). Ten minutes later, carbachol (10^−8 to 10^−3 M) was cumulatively administered in three-fold increasing doses to obtain a dose-response curve. The dose-responsecurve was plotted by expressing responses as percentages based on the reference contraction of the preparation as 100%. The antagonistic potency (KB value) of the test compound was determined from the degree of shift of the dose-responsecurve attributable to the treatment with the test compound.

T3 sequence (P08483 whole entry): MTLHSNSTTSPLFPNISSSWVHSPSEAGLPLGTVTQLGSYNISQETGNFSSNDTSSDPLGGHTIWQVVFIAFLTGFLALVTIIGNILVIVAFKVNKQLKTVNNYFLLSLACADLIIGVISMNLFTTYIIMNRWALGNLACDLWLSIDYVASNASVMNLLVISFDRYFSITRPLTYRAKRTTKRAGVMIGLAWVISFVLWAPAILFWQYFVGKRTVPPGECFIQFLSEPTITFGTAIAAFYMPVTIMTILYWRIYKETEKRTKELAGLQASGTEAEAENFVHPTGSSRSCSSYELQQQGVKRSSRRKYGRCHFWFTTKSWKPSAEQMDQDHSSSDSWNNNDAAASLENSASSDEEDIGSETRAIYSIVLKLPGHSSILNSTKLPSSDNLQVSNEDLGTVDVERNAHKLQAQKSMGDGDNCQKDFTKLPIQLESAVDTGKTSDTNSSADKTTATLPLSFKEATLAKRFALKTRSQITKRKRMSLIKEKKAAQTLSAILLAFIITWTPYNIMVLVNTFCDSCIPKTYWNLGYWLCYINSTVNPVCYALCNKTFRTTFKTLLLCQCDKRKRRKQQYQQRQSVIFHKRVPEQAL

Ki [1] [nM] | Ki [2] [nM] | Kb [3] [nM] | Selectivity M2/M3 [3] [times] | Compound
34 | 18 | 2.3 | 70 | O=C(CCNC(=O)CNC(=O)CC(c1ccccc1)(c1ccccc1)c1ccccc1)NC[C@H]1CCCN(CC2CCCCC2)C1 [Example 12, N-{2-(3-{((3R)-1-cyclohexylmethyl-3-piperidyl)methyl}amino-3-oxopropyl)amino-2-oxoethyl}-3,3,3-triphenyloropanamide]
810 | 140 | 0.71 | 58 | CC[N+]1(CC)CCC[C@H](CNC(=O)[C@H]2CCCN2C(=O)[C@@H]2C[C@@H](O)CN2C(=O)CC(c2ccccc2)(c2ccccc2)c2ccccc2)C1.[Cl-] [Example 133, (3R)-1,1-diethyl-3-({({(2R)-1-({(2S,4R)-4-hydroxy-1-(3,3,3-triphenylpropanoyl)-2-pyrrolidinyl}carbonyl)-2-pyrrolidinyl}carbonyl)amino}methyl)piperidinium chloride]
